The values below come from patent publication US12433863B2, “Pharmaceutical compositions and uses directed to lysosomal storage disorders” (INTRABIO LIMITED, priority 2016, dated 2025).

Series [1] deals with wild-type (Npc1^+/+) mice. Put plainly: In vivo mouse study in wild-type (Npc1+/+) littermates (weight, gait, motor function). As to the method: Wild-type (Npc1^+/+) littermates were used as a control.
Separate groups of Npc1^−/− and Npc1^+/+ mice were left untreated, as controls.
Animals were weighed twice a week. Weights were averaged (mean) across all mice in each group and compared.
Gait analysis was performed on mice at eight weeks of age using a CatWalk® 15.0 system according to manufacturer's instructions (Noldus, Nottingham, UK). Five runs were recorded per animal.
CatWalk® parameters measured were: • 1. Stand Mean: average duration (s) of paws in contact with glass plate; • 2. Step Cycle: duration (s) between two consecutive contacts of the same paw; • 3. Duty Cycle: percentage of time paws in contact with plate compared with time to complete a step cycle; • 4. Step Sequence (AB): percentage of time spent walking in LF-RH-RF-LH alternating pattern (LF: left front; RH: right hind; RF: right front; LH left hind); • 5. Cadence: step per seconds in a trial; • 6. Diagonal Support: percentage of time with simultaneous contact of diagonal paws with the glass plate (RF&LH or RH&LF). Motor Function Analysis
Motor function analysis was performed on mice at eight and nine weeks of age using an Open Field Activity Monitor according to manufacturer's instructions (Linton Instruments, Amlogger Software). Each mouse was placed in a plastic cage with bedding and analysed for five minutes. Rears were counted manually.
Motor function parameters measured were: • 1. Centre Rearing: mice rearing on hind legs unsupported; • 2. Rearing: mice rearing on hind legs with and without the support of cage walls; • 3. Activity: regular movement of the animal including walks; • 4. Front to Back (FR) count: movement of the animal from front to back of the cage; • 5. Active Time: duration (s/min) of activeness regardless of movement; • 6. Mobile Time: duration (s/min) of mobility; • 7. Rearing Time: duration of any rearing.

In series [2] the test system is AB variant of Tay-Sachs disease patient fibroblasts. Put plainly: Glycosphingolipid (GSL) levels by HPLC in AB variant of Tay-Sachs disease patient fibroblasts. It is filed as cell-based, human. The conditions noted are these: 1 mM for 6 days.
The subject of series [3] is patients genetically diagnosed with Tay-Sachs disease. Description: Case studies of Tay-Sachs disease patients (SARA, SCAFI, MoCA, mRDS, EQ-5D-5L). Format: in vivo, human. An excerpt: For example, to evaluate overall neurological status, mDRS, a four-domain scale (ambulation, manipulation, language and swallowing), may be applied. Cerebellar function may be evaluated using SARA, an eight-item clinical rating scale (gait, stance, sitting, speech, fine motor function and taxis; range 0-40, where 0 is the best neurological status and 40 the worst), and SCAFI, comprising the 8-m-Walking-Time (8MW; performed by having patients walking twice as quickly as possible from one line to another excluding turning), 9-Hole-Peg-Test (9HPT) and the number of “PATA” repetitions over 10 s. Subjective impairment and quality of life may be evaluated using the EQ-5D-5L questionnaire and VAS. To assess ocular motor function, 3-dimensional videooculography (EyeSeeCam) may be used to measure the peak velocity of saccades, gain of smooth pursuit, peak slow phase velocity of gaze-evoked nystagmus (gaze-holding function), peak slow phase velocity of optokinetic nystagmus, and gain of horizontal vestibulo-ocular reflex. To evaluate the cognitive state, WAIS-R or WISC-IV, and MoCA, assessing different cognitive domains, including attention and concentration, executive functions, memory, language, visuoconstructional skills, conceptual thinking, calculations, and orientation with a maximum of 30 points and a cut-off score of 26, may be used. The skilled person will know how to perform these and other such tests.
In particular, the patient was not able to stand or walk, could do single steps with strong support, had distinct postural instability, ocular movement disorder, dysphagia and dysarthria, and mild cognitive function disorder.
Before treatment was commenced, examination of the patient indicated a Scale for Assessment and Rating of Ataxia (SARA) score of 15.5/40. In addition, results from the patient's Spinocerebellar Ataxia Functional Index (SCAFI) analysis were: • Mean 8-meters Walking Test (8MW): 21.6 s • MW 9-Hole Pegboard Test Dominant (9HPTD) (right): 48.3 s • MW 9-Hole Pegboard Test Non-Dominant (9HPTND): 44.9 s • MW PATA Word Test: 20 • Montreal Cognitive Assessment (MoCA): 18/30
The day following this examination, the patient was started on therapy with acetyl-leucine, at a dose of 3 g per day for the first week, followed by a dose of 5 g per day for the second week onwards.
In particular, walking was not possible without support, and the patient suffered from dysphagia and speech disorder, ocular movement disorder, and mild cognitive function disorder.
Before treatment was commenced, examination of the patient indicated a Scale for Assessment and Rating of Ataxia (SARA) score of 10.5/40. In addition, results from the patient's Spinocerebellar Ataxia Functional Index (SCAFI) analysis were: • Mean 8-meters Walking Test (8MW): 12.5 s • MW 9-Hole Pegboard Test Dominant (9HPTD) (right): 21.5 s • MW 9-Hole Pegboard Test Non-Dominant (9HPTND): 35.5 s • MW PATA Word Test: 18 • Montreal Cognitive Assessment (MoCA): 21/30
The day of the examination, the patient was started on therapy with acetyl-leucine at a dose of 3 g per day for the first week, followed by a dose of 5 g per day for the second week onwards.
The patient in this case study was a person who was genetically diagnosed with Tay-Sachs disease and who had epileptic cramps (tonic-clonic, about 10 seconds, self-limiting) almost every day before falling asleep, ocular movement disorder, anarthria, distinct problems in cognitive function and concentration (neurological examination was not possible), was not able to stand or walk by themself, and was very limited in daily activities (eating, washing or dressing themself was not possible).
Before treatment was commenced, examination of the patient indicated a Scale for Assessment and Rating of Ataxia (SARA) score of 36/40, a mRDS score of 18/24, a EQ-5D-5L visual scale of 50, and a 8MWT of 18.1 (only with strong support). […]

The subject of series [4] is patients with Niemann-Pick Type C (NPC). The conditions noted are these: one-month study, 12 NPC patients; Bremova et al. 2015; cited from earlier work.

SMILES strings stand for the structures.

As for `CC(=O)NC(CC(C)C)C(=O)O` (racemic) [acetyl-DL-leucine], the “Effect on weight gain” value in series [1] (0.1 g/kg from weaning, three to 10 weeks of age) is “no significant effect”. For the same compound, in series [1] (0.1 g/kg, eight weeks of age), the “Gait properties versus untreated littermates” value is “no significant difference”. For the same compound, the “Motor function properties versus untreated littermates” value in series [1] (0.1 g/kg, nine weeks of age) is reported as “no significant difference”. Moreover, the “GSL levels (GSL storage)” value in series [2] is “trend towards decreased GSL levels”. Also, the “Overall change in symptoms” value in series [3] (Patient 1) was “improvement in symptoms”. The SARA in series [3] (Patient 1, 3 g then 5 g per day, after 4 months) was 17/40; in series [3] (Patient 2, 3 g then 5 g per day, after one month), 5/40; in series [3] (Patient 3, 1.5 g then 3 g per day, after one month) it was 33/40. For the same compound, the MoCA in series [3] (Patient 1, after 4 months) was 22/30; in series [3] (Patient 1, after one month), 21/30; in series [3] (Patient 2, after one month), 25/30. Besides, the Clinical re-examination findings entry is “stable condition with slightly improved cognitive function but had deterioration of stance, gait and fine motor function” in series [3] (Patient 1, after four months); “improved fine motor skills and reduced hand tremor” in series [3] (Patient 1, after one month); “increased enunciation, improved postural stability, and enhanced cognitive function” in series [3] (Patient 2, after one month). Besides, the Ataxia symptoms result in series [4] was “symptomatic improvement of ataxia”.
